From patent US9790135B2, “Use of acylated carbonic esters of glycerol in agriculture” (AGRONUTRITION, priority 2013, dated 2017)
Values belong to the molecule of their own block, whether it stands above or below them.

Experiments:
[1] = Stability of the concentrated colloidal suspension towards sedimentation; format: physicochemical; details: concentrated colloidal suspension of MnCO3 (and MnSO4) in glycerol/water with the adjuvant
Description: The concentrated colloidal suspension is stable towards sedimentation over time—in particular over a period of 12 months—and is capable of being stored at a temperature of from −50° C. to +50° C. without any alteration of its rheological properties or of the stimulating and/or nutritive properties of the nutritive composition obtained by dilution of the concentrated colloidal suspension. Such a concentrated colloidal suspension can therefore be proposed for sale, marketed and distributed while retaining the stimulating and/or nutritive properties of the nutritive composition.
Cyclic glycerol carbonate (CG) of formula (VI), glycerol, water and manganese carbonate (MnCO3) in the form of a solid in the divided state, the solid particles of which have a mean size of approximately 2 μm, are mixed.

[2] = tested on: soya; assay: Foliar manganese content of soya after foliar application of nutritive MnCO3 compositions; details: soya crop, 500 g manganese carbonate per hectare
[3] = tested on: winter common wheat (variety Quality, ARVALIS); assay: Manganese content retained in leaves of treated winter common wheat; format: in vivo
Description: A powder of manganese carbonate (MnCO3, CAS 598-62-9) having a mean particle size of substantially approximately 2 μm is prepared by grinding. A concentrated colloidal suspension comprising 58.7% of this powder in a liquid composition comprising 1.5% glycerol carbonate acetate (ECG-C2, as described in Example 3 and in Table 1), […], 7.5% water and 1% jojoba oil, the indicated percentages being percentages by mass. The concentrated colloidal suspension is diluted in water to form a treatment composition (Mn385) according to the invention which is suitable for applying, by spraying on the cultivated surface area, a quantity of manganese carbonate of 385 g per hectare of cultivated surface area.
There are also prepared: • a concentrated colloidal suspension as described in Example 4, and this concentrated colloidal suspension is diluted in water to form a nutritive composition (Mn457) according to the invention which is suitable for applying, by spraying, a quantity of manganese carbonate of 457 g per hectare of surface area; and • a concentrated colloidal suspension as described in Example 7, and this concentrated colloidal suspension is diluted in water to form a nutritive composition (Mn509) according to the invention which is suitable for applying, by spraying, a quantity of manganese carbonate of 509 g per hectare of cultivated surface area.
The nutritive compositions Mn385, Mn457 and Mn509 according to the invention are applied by spraying to plots of 4 parcels having a surface area of 16 m^2 cultivated with winter common wheat (variety “Quality”, ARVALIS).
There are also prepared in parallel: • on a plot of 4 16 m^2 parcels, a crop of winter common wheat treated by spraying with water, as negative control; and • on a plot of 4 16 m^2 parcels, a crop of winter common wheat treated with MnCO3 on its own (without adjuvant according to the invention) at a rate of 500 g per hectare, as control treatment; and • on a plot of 4 16 m^2 parcels, a crop of winter common wheat treated, by way of comparison, with a formulation of MANTRAC 500 at a rate of 500 g of MnCO3 per hectare.
The manganese content retained in the leaves of treated common wheat is measured one day (D+1), seven days (D+7), 14 days (D+14) and 21 days (D+21) after application. To that end, the leaves are removed and washed three times with water to remove the manganese carbonate that has not been absorbed by the plant, and the manganese absorbed into the leaves is then assayed. The results are given in Table 2 below and are expressed in ppm (μg of manganese per gram of leaf).
The kinetics of daily MnCO3 assimilation in the leaves are measured.

Molecule: CC(=O)OCC1COC(=O)O1 (stereo not drawn) [ECG-C2, cyclic α/α′-acetylated glycerol carbonic ester]
stability of the concentrated colloidal suspension (settling of particles) [1]: stable over time

Molecule: CCCCCCCC/C=C\CCCCCCCC(=O)OCC1COC(=O)O1 (stereo not drawn) [ECG-C18:1, cyclic α/α′-oleylated glycerol carbonic ester]
stability of the concentrated colloidal suspension (settling of particles) [1]: stable over time
foliar manganese content reached (maximum) up to four days after application [2]: greater than 250 ppm

Molecule: manganese carbonate [MnCO3 on its own]
results relative to the negative control (water) (in words) ([3]; 500 g per hectare, without adjuvant): do not differ from the results obtained with the negative control
manganese content retained in the leaves, D + 14 ([3]; 14 days after application): 112.50 +/− 45.35 ppm (μg of manganese per gram of leaf)
manganese content retained in the leaves, D + 21 ([3]; 21 days after application): 95.43 +/− 5.95 ppm (μg of manganese per gram of leaf)
manganese content retained in the leaves, D + 1 ([3]; one day after application, leaves washed three times with water): 84.83 +/− 28.01 ppm (μg of manganese per gram of leaf)
manganese content retained in the leaves, D + 7 ([3]; seven days after application): 74.83 +/− 19.14 ppm (μg of manganese per gram of leaf)

More lines, now with the values ahead:

stability of the concentrated colloidal suspension (settling of particles) [1]: stable over time
Molecule: CCCCCCC(=O)OCC1COC(=O)O1 (stereo not drawn) [ECG-C7, cyclic α/α′-heptanoylated glycerol carbonic ester]

stability of the concentrated colloidal suspension (settling of particles) [1]: stable over time
Molecule: CCCCCCCCC(=O)OCC1COC(=O)O1 (stereo not drawn) [ECG-C9, cyclic α/α′-nonanoylated glycerol carbonic ester]

stability of the concentrated colloidal suspension (settling of particles) [1]: stable over time
Molecule: C=CCCCCCCCCC(=O)OCC1COC(=O)O1 (stereo not drawn) [ECG-C11:1, cyclic α/α′-undecylenoylated glycerol carbonic ester]
